According to patent US8895069B2, “Drug delivery system using hyaluronic acid-peptide conjugate micelle” (Postech Academy-Industry Foundation, priority 2011, dated 2014):
Ends that are not written are not given here.

Tests used:
[1] = system: methacholine airway hyper-responsiveness; assay: Methacholine airway hyper-responsiveness (Penh) in OVA/LPS asthma model; format: in vivo, BALB/c mice; settings: 24 hours after the last allergen challenge, intranasal
Method: The biological activity of the hyaluronic acid-peptide conjugate with a lower peptide concentration (HA-GGNQWFI) in accordance with Preparation Example 3 was measured through the reaction to methacholine. Specifically, as to the airway hyper-responsiveness (AHR), the laboratory rat (in vivo) was made to keep exercising naturally without being put under anesthesia and the enhanced pause (Penh), the number reflecting the airway obstruction as represented by Mathematical Equation 1 was measured by using plethysmography. In this experimentation was used a non-invasive method wherein the measurement was conducted without correcting or putting the laboratory animal under anesthesia. Penh=[(Te/RT−1)×(PEF/PIF)] [Mathematical Equation 1]
In Mathematical Equation 1, Te represents an expiratory time (seconds), RT represents a relaxation time (seconds), PEF represents a peak expiratory flow […], and PIF represents a peak inspiratory flow (ml/s).
As the laboratory mouse, BALB/c mice (female, 6 week old, 5 per each group) were used. […]
The pulmonary function was measured on the 23th day by using the non-invasive whole body plethysmographs for the mouse that was not put under anesthesia. […] The aerosol was prepared by using an ultrasonic nebulizer and the laboratory mouse was exposed to methacholine for 3 minutes and then the Penh was measured for 5 minutes.

[2] = system: corneal neovascularization; assay: Corneal neovascularization after silver nitrate cauterization (Experimental Example 8); format: in vivo, Albino Sprague Dawley male rats; settings: rat cornea, subconjunctival 20 μL; Avastin 10 mg/ml, peptide and conjugate […] peptide; NV control 90.8±5%
Method: All animal tests including this experiment were conducted in compliance with the guidelines of the Catholic University of Korea and the principles of laboratory animal care; NIH publication No. 85-23 revised in 1985.
The rat was put under anesthesia by an intra-peritoneal injection of a mixed solution of 20 mg/kg of ketamine hydrochloride and 2.5 mg/kg of xylazine hydrochloride. […] In 3 days after the cauterization, subconjunctival administration was conducted with 20 μL of each of 4 sample solutions (a normal control group, NV control (neovascularization control: a control group wherein angiogenesis was made to occur and no drug was treated thereon), a solution comprising Avastin (Roche) dissolved in PBS at a concentration of 10 mg/ml, a solution comprising anti-Flt1 peptide (GGNQWFI) (SEQ ID NO: 3) dissolved in PBS at a concentration of 2.5 mg/ml, and a solution comprising the hyaluronic acid-peptide conjugate with a lower peptide concentration obtained from Preparation Example 3 as dissolved in PBS at a concentration of 2.5 mg/ml based on the content of anti-Flt1 peptide). […] The obtained images were subjected to quantitative analysis with Image J program (Ver. 1.38, National Institute of Health, MD).

[3] = TEM particle size of micelle; format: physicochemical; settings: spherical particle, n=30
Method: The anti-Flt1 peptide (GGNQWFI) (SEQ ID NO: 3) and the hyaluronic acid-peptide conjugate with a lower peptide content as prepared from Preparation Example 3 were dissolved in 4004, of PBS to have a final peptide concentration of 1.25 mg/mL, respectively. The amount of the anti-Flt1 peptide contained in each solution was measured with a changeable UV transilluminator (DUT-260, Core Bio System, Korea) by using 312 nm of light source. The formation of the hyaluronic acid-peptide micelle in an aqueous solution was confirmed by using a transmission electron microscope (TEM) (Hitachi, Tokyo, Japan). For a TEM analysis, 10 μL of the hyaluronic acid-peptide conjugate solution was dropped onto a 300 mesh copper TEM grid with a carbon film and then was dried. The average particle size was calculated out from the diameters obtained from the images of 30 particles.
For a transmission electron microscope (TEM) (Hitachi, Tokyo, Japan) analysis, 10 μL of the solution of the drug-loaded, hyaluronic acid-peptide conjugate micelle was dropped onto a 300 mesh copper TEM grid with a carbon film and then was dried.

[4] = system: vascular hyperpermeability due to diabetic retinopathy; assay: Vascular hyperpermeability due to diabetic retinopathy, genistein-loaded micelle (Experimental Example 14); format: in vivo, Sprague Dawley (SD) male rats; settings: normal = 1, negative control 2.54±0.20; Avastin 10 mg/ml; micelle 3.2 mg/ml peptide; four weeks after streptozotocin
Method: First, each rat was injected intraperitonially with 60 mg/kg of streptozotocin dissolved in 10 mM citrate buffer at pH 4.5 in order for diabetes to be induced. In three days after the injection of streptozotocin, the rat was determined to develop diabetes when its serum concentration of glucose was at least 300 mg/dL. In a week after the injection of streptozotocin, 10 μL of each sample solution was injected into the vitroeus body.

GGNQWFI [anti-Flt1 peptide, GGNQWFI]
methacholine airway hyper-responsiveness [1]: inferior to the hyaluronic acid-peptide conjugate | average ratio of the neovascular area [2]: 27±5.7%

HA-GGNQWFI: hyaluronic acid (MW 100 kDa) conjugated with GGNQWFI, 20 peptides per one molecule of HA-TBA (also: conjugated to hyaluronic acid, about 20 peptides per HA)
methacholine airway hyper-responsiveness [1]: greatly reduced to a level similar to that of the normal control group | average ratio of the neovascular area [2]: 17.4±5.6% | average diameter by TEM [3]: 234.5±20.6 nm | average intensity of the fluorescence of retina relative to normal group (1) [4]: 1.58±0.17
